Biological target: T1, Indoleamine 2,3-dioxygenase (Homo sapiens, UniProt P14902)
T1 construct: endogenous in cells; host or cells: SKOV-3 (ATCC HTB-77), stimulated with 50 ng/ml interferon gamma
Assay: SKOV-3 Cellular Indoleamine 2,3-dioxygenase Assay
Details: SKOV-3 cells, 50 ng/ml Interferon gamma, 100 μM L-Tryptophan, 24 hours, N-Formylkynurenin fluorescence detection; read-out: cell based activity (IC50)
Procedure: SKOV-3 Cellular Indoleamine 2,3-dioxygenase Assay
SKOV-3 cells were obtained from the American Type Culture Collection (ATCC® HTB-77™) and maintained in McCoy's medium (Pan Biotech) supplemented with 10% fetal bovine serum and 1% Penicillin/Streptomycin. Cells were kept at 37° C. in a humidified incubator with 5% CO2. For assay preparation, cells were seeded at a density of 2*10^5/ml into black clear bottom 96 well plates in 100 μl medium/well supplemented with 50 ng/ml Interferon gamma (eBioscience, Thermo Fisher Scientific). After cells fully adhered to the plate, dilution series of compounds were added in medium containing additional L-Tryptophan to a final L-Tryptophan concentration of 100 μM. The cells were incubated for 24 hours. Detection of produced N-Formylkynurenin was performed by addition of 3-Methylpiperidine to a final concentration of 200 mM. The plates were sealed and heated to 65° C. for 20 minutes in a water bath. After cooling the fluorescence of each well was recorded with a Victor™X4 (PerkinElmer) plate reader at an emission wavelength of 535 nm and excitation at 405 nm (Tomek et al.; Anal Bioanal Chem (2013) 405:2515-2524, Tomek et al.; Biochim Biophys Acta. 2015 September; 1850(9):1772-80).

T1 sequence (P14902 whole entry): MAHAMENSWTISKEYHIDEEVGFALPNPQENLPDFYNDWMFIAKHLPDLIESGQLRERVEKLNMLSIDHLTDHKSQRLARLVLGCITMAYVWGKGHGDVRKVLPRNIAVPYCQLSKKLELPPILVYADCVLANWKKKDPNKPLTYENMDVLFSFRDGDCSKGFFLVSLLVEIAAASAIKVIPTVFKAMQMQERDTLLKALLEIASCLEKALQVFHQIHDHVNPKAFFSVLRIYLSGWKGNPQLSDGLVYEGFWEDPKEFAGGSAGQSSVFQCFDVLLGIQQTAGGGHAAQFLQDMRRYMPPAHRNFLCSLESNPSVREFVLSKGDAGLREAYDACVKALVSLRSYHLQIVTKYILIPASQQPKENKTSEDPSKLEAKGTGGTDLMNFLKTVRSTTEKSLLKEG

Row | Compound | IC50 [nM]
1 | O=C(C[C@H]1CC[C@@]2(CCc3ccccc32)CC1)Nc1ccc(Cl)cc1 (single isomer, unassigned) [Example 1b, N-(4-chlorophenyl)-2-(2′,3′-dihydrospiro[cyclohexane-1,1′-inden]-4-yl)acetamide] | ≥ 50
2 | O=C(C[C@H]1CC[C@@]2(CCc3ccccc32)CC1)Nc1ccc(Cl)cc1 (single isomer, unassigned) [Example 1c, N-(4-chlorophenyl)-2-(2′,3′-dihydrospiro[cyclohexane-1,1′-inden]-4-yl)acetamide] | < 50
3 | CC(C(=O)Nc1ccc(Cl)cc1)[C@H]1CC[C@@]2(CCc3ccccc32)CC1 (single isomer, unassigned) [Example 2a, N-(4-chlorophenyl)-2-(2′,3′-dihydrospiro[cyclohexane-1,1′-inden]-4-yl)propanamide] | < 50
4 | CC(C(=O)Nc1ccc(Cl)cc1)[C@H]1CC[C@@]2(CCc3ccccc32)CC1 (single isomer, unassigned) [Example 2b, N-(4-chlorophenyl)-2-(2′,3′-dihydrospiro[cyclohexane-1,1′-inden]-4-yl)propanamide] | < 50
5 | CC(C(=O)Nc1ccc(Cl)cc1)C1CCC2(CC1)COc1ncc(C(F)(F)F)cc12 (single isomer, unassigned) [Example 4b, N-(4-chlorophenyl)-2-(5′-(trifluoromethyl)-2′H-spiro[cyclohexane-1,3′-furo[2,3-b]pyridin]-4-yl)propanamide] | ≥ 50
6 | CC(C(=O)Nc1ccc(Cl)cc1)C1CCC2(CC1)COc1ncc(C(F)(F)F)cc12 (single isomer, unassigned) [Example 4c, N-(4-chlorophenyl)-2-(5′-(trifluoromethyl)-2′H-spiro[cyclohexane-1,3′-furo[2,3-b]pyridin]-4-yl)propanamide] | ≥ 50
7 | CC(C(=O)Nc1ccc(Cl)cc1)C1CCC2(CC1)COc1ncc(C(F)(F)F)cc12 (single isomer, unassigned) [Example 4d, N-(4-chlorophenyl)-2-(5′-(trifluoromethyl)-2′H-spiro[cyclohexane-1,3′-furo[2,3-b]pyridin]-4-yl)propanamide] | ≥ 50
8 | CC(C(=O)Nc1ccc(Cl)cc1)C1CCC2(CC1)COc1ncc(C(F)(F)F)cc12 (single isomer, unassigned) [Example 4e, N-(4-chlorophenyl)-2-(5′-(trifluoromethyl)-2′H-spiro[cyclohexane-1,3′-furo[2,3-b]pyridin]-4-yl)propanamide] | < 50
9 | CC(C(=O)Nc1ccc(Cl)cc1)C1CCC2(CC1)COc1nc(C(F)(F)F)ccc12 (single isomer, unassigned) [Example 5b, N-(4-chlorophenyl)-2-(6′-(trifluoromethyl)-2′H-spiro[cyclohexane-1,3′-furo[2,3-b]pyridin]-4-yl)propanamide] | < 50
10 | CC(C(=O)Nc1ccc(Cl)cc1)C1CCC2(CC1)COc1nc(C(F)(F)F)ccc12 (single isomer, unassigned) [Example 5c, N-(4-chlorophenyl)-2-(6′-(trifluoromethyl)-2′H-spiro[cyclohexane-1,3′-furo[2,3-b]pyridin]-4-yl)propanamide] | < 50
11 | CC(C(=O)Nc1ccc(Cl)cc1)C1CCC2(CC1)COc1nc(C(F)(F)F)ccc12 (single isomer, unassigned) [Example 5d, N-(4-chlorophenyl)-2-(6′-(trifluoromethyl)-2′H-spiro[cyclohexane-1,3′-furo[2,3-b]pyridin]-4-yl)propanamide] | ≥ 50
12 | CC(C(=O)Nc1ccc(Cl)cc1)C1CCC2(CC1)COc1nc(C(F)(F)F)ccc12 (single isomer, unassigned) [Example 5e, N-(4-chlorophenyl)-2-(6′-(trifluoromethyl)-2′H-spiro[cyclohexane-1,3′-furo[2,3-b]pyridin]-4-yl)propanamide] | < 50
13 | CC(C(=O)Nc1ccc(Cl)cc1)C1CCC2(CC1)c1ccc(C(F)(F)F)cc1C(=O)N2C (single isomer, unassigned) [Example 6b, N-(4-Chlorophenyl)-2-(2′-methyl-3′-oxo-5′-(trifluoromethyl)spiro[cyclohexane-1,1′-isoindolin]-4-yl)propanamide] | ≥ 50
14 | CC(C(=O)Nc1ccc(Cl)cc1)C1CCC2(CC1)c1ccc(C(F)(F)F)cc1C(=O)N2C (single isomer, unassigned) [Example 6c, N-(4-Chlorophenyl)-2-(2′-methyl-3′-oxo-5′-(trifluoromethyl)spiro[cyclohexane-1,1′-isoindolin]-4-yl)propanamide] | < 50
15 | CC(C(=O)Nc1ccc(Cl)cc1)C1CCC2(CC1)c1ccc(C(F)(F)F)cc1C(=O)N2C (single isomer, unassigned) [Example 6d, N-(4-Chlorophenyl)-2-(2′-methyl-3′-oxo-5′-(trifluoromethyl)spiro[cyclohexane-1,1′-isoindolin]-4-yl)propanamide] | ≥ 50
16 | CC(C(=O)Nc1ccc(Cl)cc1)C1CCC2(CC1)c1ccc(C(F)(F)F)cc1C(=O)N2C (single isomer, unassigned) [Example 6e, N-(4-Chlorophenyl)-2-(2′-methyl-3′-oxo-5′-(trifluoromethyl)spiro[cyclohexane-1,1′-isoindolin]-4-yl)propanamide] | ≥ 50
17 | CC(C(=O)Nc1ccc(Cl)cc1F)C1CCC2(CC1)COc1cc(C(F)(F)F)ccc12 (single isomer, unassigned) [Example 7b, N-(4-Chloro-2-fluorophenyl)-2-(6-(trifluoromethyl)-2H-spiro[benzofuran-3,1′-cyclohexan]-4′-yl)propanamide] | < 50
18 | CC(C(=O)Nc1ccc(Cl)cc1F)C1CCC2(CC1)COc1cc(C(F)(F)F)ccc12 (single isomer, unassigned) [Example 7c, N-(4-Chloro-2-fluorophenyl)-2-(6-(trifluoromethyl)-2H-spiro[benzofuran-3,1′-cyclohexan]-4′-yl)propanamide] | < 50
19 | CC(C(=O)Nc1ccc(Cl)cc1F)C1CCC2(CC1)COc1cc(C(F)(F)F)ccc12 (single isomer, unassigned) [Example 7d, N-(4-Chloro-2-fluorophenyl)-2-(6-(trifluoromethyl)-2H-spiro[benzofuran-3,1′-cyclohexan]-4′-yl)propanamide] | < 50
20 | CC(C(=O)Nc1ccc(Cl)cc1F)C1CCC2(CC1)COc1cc(C(F)(F)F)ccc12 (single isomer, unassigned) [Example 7e, N-(4-Chloro-2-fluorophenyl)-2-(6-(trifluoromethyl)-2H-spiro[benzofuran-3,1′-cyclohexan]-4′-yl)propanamide] | ≥ 50
21 | Cc1ccc(NC(=O)C(C)C2CCC3(CC2)COc2cc(C(F)(F)F)ccc23)cc1 (single isomer, unassigned) [Example 8b, N-(p-Tolyl)-2-(6-(trifluoromethyl)-2H-spiro[benzofuran-3,1′-cyclohexan]-4′-yl)propanamide] | < 50
22 | Cc1ccc(NC(=O)C(C)C2CCC3(CC2)COc2cc(C(F)(F)F)ccc23)cc1 (single isomer, unassigned) [Example 8c, N-(p-Tolyl)-2-(6-(trifluoromethyl)-2H-spiro[benzofuran-3,1′-cyclohexan]-4′-yl)propanamide] | < 50
23 | Cc1ccc(NC(=O)C(C)C2CCC3(CC2)COc2cc(C(F)(F)F)ccc23)cc1 (single isomer, unassigned) [Example 8d, N-(p-Tolyl)-2-(6-(trifluoromethyl)-2H-spiro[benzofuran-3,1′-cyclohexan]-4′-yl)propanamide] | < 50
